Test results published in patent US20200308192A1, “NOVEL THIAZOLO[5,4-D]PYRIMIDINE DERIVATIVES AS INVERSE AGONISTS OF A2A ADENOSINE RECEPTORS” (Universita degli Studi di Ferrara, priority 2016, published 2020).
Where two headings read alike, the source gives them in different places.

Experiments:
[1] = biological target: T1, human adenosine A3 receptor (Homo sapiens, UniProt P0DMS8); assay: Competition binding, [125I]-ABMECA, hA3 CHO membranes; conditions: mean ± SEM
T1 construct: expressed in transfected cells; host or cells: CHO cells (membrane preparation)
T1 sequence (P0DMS8 1-318): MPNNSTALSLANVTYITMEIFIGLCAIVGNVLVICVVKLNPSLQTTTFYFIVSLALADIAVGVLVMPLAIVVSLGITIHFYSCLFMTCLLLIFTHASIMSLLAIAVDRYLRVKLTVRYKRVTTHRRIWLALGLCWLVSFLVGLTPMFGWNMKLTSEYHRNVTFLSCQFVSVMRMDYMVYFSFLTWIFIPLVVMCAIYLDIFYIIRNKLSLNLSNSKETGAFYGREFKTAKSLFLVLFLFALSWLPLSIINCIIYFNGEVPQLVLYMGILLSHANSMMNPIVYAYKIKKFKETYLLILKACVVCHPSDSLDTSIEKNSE

[2] = biological target: T2, human adenosine A1 receptor (Homo sapiens, UniProt P30542); assay: Competition binding, [3H]-DPCPX, hA1 CHO membranes; conditions: read-out: Receptor hA1 Ki, mean ± SEM
T2 sequence (P30542 1-326): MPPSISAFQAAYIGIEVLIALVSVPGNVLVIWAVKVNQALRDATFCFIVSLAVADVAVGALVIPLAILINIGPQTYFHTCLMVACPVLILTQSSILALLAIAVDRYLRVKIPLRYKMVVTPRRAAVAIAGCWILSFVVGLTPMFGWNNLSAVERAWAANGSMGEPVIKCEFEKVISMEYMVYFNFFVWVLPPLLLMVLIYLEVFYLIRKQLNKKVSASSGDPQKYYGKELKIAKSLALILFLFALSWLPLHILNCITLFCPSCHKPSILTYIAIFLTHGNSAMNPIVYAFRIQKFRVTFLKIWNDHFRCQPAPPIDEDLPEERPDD

[3] = biological target: T3, human adenosine A2A receptor (Homo sapiens, UniProt P29274); assay: Competition binding, [3H]-ZM 241385, hA2A CHO membranes; conditions: read-out: Receptor hA2A Ki; [3H]-ZM 241385; single affinity value; mean ± SEM
T3 sequence (P29274 whole entry): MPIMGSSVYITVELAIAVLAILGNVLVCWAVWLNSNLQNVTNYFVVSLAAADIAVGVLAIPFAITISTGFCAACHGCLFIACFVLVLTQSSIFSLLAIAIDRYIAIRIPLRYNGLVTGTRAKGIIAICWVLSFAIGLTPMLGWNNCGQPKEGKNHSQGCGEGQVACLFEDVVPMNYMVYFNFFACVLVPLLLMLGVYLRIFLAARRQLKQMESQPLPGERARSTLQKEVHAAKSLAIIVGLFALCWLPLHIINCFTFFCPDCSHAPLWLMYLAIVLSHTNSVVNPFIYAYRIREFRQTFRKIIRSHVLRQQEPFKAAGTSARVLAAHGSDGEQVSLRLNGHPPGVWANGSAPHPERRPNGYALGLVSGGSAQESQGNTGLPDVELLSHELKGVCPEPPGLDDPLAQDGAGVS

[4] = biological target: T3, human adenosine A2A receptor; assay: cAMP assay in hA2A CHO cells, basal or with CGS 21680; assay type: cell-based; design: expressed in transfected cells; host or cells: CHO cells; conditions: for IC50: mean ± SEM
Method: For the membranes preparation the culture medium was removed, and the cells were washed with a saline phosphate-buffered solution collected with hypotonic buffer (5 mM Tris HCl, 1 mM EDTA, pH 7.4).
CHO cells transfected with the adenosine receptors were washed with a phosphate-buffered saline solution, detached with trypsin and centrifuged for 10 minutes at 200 g. […] The reaction was terminated by addition of cold 6% trichloroacetic acid (TCA). The TCA suspension was centrifuged at 2000 g for 10 minutes at 4° C. and the supernatant was extracted four times with diethyl ether with water. The final aqueous solution was tested for the cAMP levels by a competition protein binding assay with a cAMP-binding protein. The standard samples of cAMP (0-10 pmoli) were added to each test tube containing the incubation buffer (trizma base 0.1 M, aminophylline 8.0 mM, 2 mercaptoethanol 6.0 mM, pH 7.4) and [^3H]-cAMP. The binding protein previously prepared from beef adrenals, was added to the samples previously incubated at 4° C. for 150 minutes, and after the addition of charcoal were centrifuged at 2000 g for 10 min.
The statistical analysis of the data was performed using ANOVA followed by Dunnett's test. […] KH and KL were obtained by using a two sites binding model and Graph PAD Prism (San Diego, Calif., USA). The values of IC50 obtained in the cAMP assays were calculated by non-linear regression analysis using the equation for a sigmoid concentration-response curve. All data are expressed as the mean±SEM of four independent experiments each performed in duplicate for in vitro assays and n=8-10 mice/group for in vivo assays.

[5] = biological target: T4, human adenosine A2B receptor (Homo sapiens, UniProt P29275); assay: cAMP assay, inhibition of NECA-stimulated cAMP levels in hA2B CHO cells; conditions: read-out: Receptor hA2B IC50; cAMP stimulated by NECA (100 nM); mean ± SEM
T4 sequence (P29275 1-332): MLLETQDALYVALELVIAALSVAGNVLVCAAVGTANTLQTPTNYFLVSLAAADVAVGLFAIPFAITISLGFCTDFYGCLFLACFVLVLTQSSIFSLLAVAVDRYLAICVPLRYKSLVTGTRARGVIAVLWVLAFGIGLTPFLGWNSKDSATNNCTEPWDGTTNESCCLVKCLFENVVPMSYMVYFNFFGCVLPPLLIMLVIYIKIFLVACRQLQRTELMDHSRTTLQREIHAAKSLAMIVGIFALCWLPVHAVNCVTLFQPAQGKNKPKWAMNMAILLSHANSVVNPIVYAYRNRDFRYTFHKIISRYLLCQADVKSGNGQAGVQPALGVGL

[6] = CGS 21680 (10 nM), read-out: IC50 cAMP, in presence of CGS 21680
[7] = CGS 21680 (10 nM), read-out: Emax cAMP, in presence of CGS 21680
[8] = basal cAMP, read-out: IC50 cAMP, in absence of CGS 21680
[9] = efficacy versus basal cAMP production, read-out: Emax cAMP, in absence of CGS 21680

Compound: COc1ccc(CNc2nc(N)c3nc(-c4ccco4)sc3n2)cc1 [Compound 2, 2-(furan-2-yl)-N^5-(4-methoxybenzyl)[1,3]thiazolo[5,4-d]pyrimidin-5,7-diamine]
- Ki [1]: 381 ± 37 nM
- Ki [2]: 163 ± 12 nM
- Ki [3]: 171 ± 16 nM
- IC50 [4, 6]: 123 ± 11 nM
- Emax [4, 7]: 116 ± 11%
- IC50 [4, 8]: 187 ± 16 nM
- Emax [4, 9]: 38 ± 4%
- IC50 [5]: 283 ± 27 nM

Compound: Nc1nc(NCc2cccc(O)c2)nc2sc(-c3ccco3)nc12 [Compound 4, 3-(((7-amino-2-(furan-2-yl)[1,3]thiazolo[5,4-d]pyrimidin-5-yl)amino)methyl) phenol]
- Ki [1]: 55 ± 4 nM
- Ki [2]: 27 ± 3 nM
- Ki [3]: 20 ± 2 nM
- IC50 [4, 6]: 22 ± 2 nM
- Emax [4, 7]: 139 ± 13%
- IC50 [4, 8]: 27 ± 2 nM
- Emax [4, 9]: 68 ± 7%
- IC50 [5]: 24 ± 3 nM

Compound: Nc1nc(NCc2ccccn2)nc2sc(-c3ccco3)nc12 [Compound 8, 2-(furan-2-yl)-N^5-(pyridin-2-ylmethyl)[1,3]thiazolo[5,4-d]pyrimidin-5,7-diamine]
- Ki [1]: 59 ± 5 nM
- Ki [2]: 28 ± 3 nM
- Ki [3]: 0.42 ± 0.04 nM
- IC50 [4, 6]: 1.3 ± 0.1 nM
- Emax [4, 7]: 128 ± 11%
- IC50 [4, 8]: 0.68 ± 0.06 nM
- Emax [4, 9]: 54 ± 5%
- IC50 [5]: 95 ± 9 nM

Compound: Nc1nc(NCc2cccc(F)c2)nc2sc(-c3ccco3)nc12 [Compound 9, N^5-(3-fluorobenzyl)-2-(furan-2-yl)[1,3]thiazolo[5,4-d]pyrimidin-5,7-diamine]
- Ki [1]: 35 ± 4 nM
- Ki [2]: 8.51 ± 0.76 nM
- Ki [3]: 0.82 ± 0.07 nM
- IC50 [5]: 103 ± 10 nM

Compound: CCCNc1nc(N)c2nc(-c3ccco3)sc2n1 [Compound 11, 2-(furan-2-yl)-N^5-propyl-[1,3]thiazolo[5,4-d]pyrimidin-5,7-diamine]
- Ki [1]: 35 ± 4 nM
- Ki [2]: 64 ± 10 nM
- Ki [3]: 17 ± 2 nM
- IC50 [5]: 323 ± 28 nM

Compound: CCCCNc1nc(N)c2nc(-c3ccco3)sc2n1 [Compound 12, N^5-butyl-2-(furan-2-yl)[1,3]thiazolo[5,4-d]pyrimidin-5,7-diamine]
- Ki [1]: 23 ± 3 nM
- Ki [2]: 41 ± 5 nM
- Ki [3]: 8.21 ± 0.78 nM
- IC50 [5]: 185 ± 17 nM

Compound: Nc1nc(NCc2ccsc2)nc2sc(-c3ccco3)nc12 [Compound 13, 2-(furan-2-yl)-N^5-(thiophen-3-ylmethyl)[1,3]thiazolo[5,4-d]pyrimidin-5,7-diamine]
- Ki [1]: 3.14 ± 0.29 nM
- Ki [2]: 8.12 ± 0.71 nM
- Ki [3]: 0.25 ± 0.02 nM
- IC50 [4, 6]: 0.41 ± 0.03 nM
- Emax [4, 7]: 137 ± 13%
- IC50 [4, 8]: 0.36 ± 0.04 nM
- Emax [4, 9]: 67 ± 6%
- IC50 [5]: 8.96 ± 0.82 nM

Compound: Nc1nc(NCc2ccncc2)nc2sc(-c3ccco3)nc12 [Compound 14, 2-(furan-2-yl)-N^5-(pyridin-4-ylmethyl)[1,3]thiazolo[5,4-d]pyrimidin-5,7-diamine]
- Ki [1]: 827 ± 48 nM
- Ki [2]: 47 ± 4 nM
- Ki [3]: 12 ± 1 nM
- IC50 [4, 6]: 18.7 ± 1.6 nM
- Emax [4, 7]: 122 ± 10%
- IC50 [4, 8]: 15.3 ± 1.2 nM
- Emax [4, 9]: 43 ± 4%
- IC50 [5]: 33 ± 2 nM

Compound: Nc1nc(NCc2cnccn2)nc2sc(-c3ccco3)nc12 [Compound 15, 2-(furan-2-yl)-N^5-(pyrazin-2-ylmethyl)[1,3]thiazolo[5,4-d]pyrimidin-5,7-diamine]
- Ki [1]: 157 ± 14 nM
- Ki [2]: 25 ± 4 nM
- Ki [3]: 5.14 ± 0.48 nM
- IC50 [4, 6]: 11.3 ± 0.96 nM
- Emax [4, 7]: 117 ± 10%
- IC50 [4, 8]: 8.27 ± 0.72 nM
- Emax [4, 9]: 48 ± 4%
- IC50 [5]: 13.2 ± 1.2 nM

Compound: Nc1nc(NCCc2ccco2)nc2sc(-c3ccco3)nc12 [Compound 16, 2-(furan-2-yl)-N^5-(2-(furan-2-yl)ethyl)[1,3]thiazolo[5,4-d]pyrimidin-5,7-diamine]
- Ki [1]: 23 ± 2 nM
- Ki [2]: 5.24 ± 0.46 nM
- Ki [3]: 2.15 ± 0.19 nM
- IC50 [4, 6]: 4.26 ± 0.37 nM
- Emax [4, 7]: 121 ± 11%
- IC50 [4, 8]: 2.93 ± 0.22 nM
- Emax [4, 9]: 56 ± 6%
- IC50 [5]: 14 ± 1 nM

Compound: Nc1nc(NCCc2cccnc2)nc2sc(-c3ccco3)nc12 [Compound 17, 2-(furan-2-yl)-N^5-(2-(pyridin-3-yl)ethyl)[1,3]thiazolo[5,4-d]pyrimidin-5,7-diamine]
- Ki [1]: 174 ± 11 nM
- Ki [2]: 2.61 ± 0.22 nM
- Ki [3]: 0.24 ± 0.01 nM
- IC50 [4, 6]: 0.35 ± 0.04 nM
- Emax [4, 7]: 141 ± 14%
- IC50 [4, 8]: 0.29 ± 0.03 nM
- Emax [4, 9]: 71 ± 7%
- IC50 [5]: 4.21 ± 0.32 nM
